What was measured:
[1] = Protective index, ratio of TD50 for neurotoxicity in ip dosed Swiss mouse to ED50 for anticonvulsant activity in ip dosed Swiss mouse; format: toxicity, organism-based; settings: in vivo, read-out: Ratio TD50/ED50
[2] = Protective index, ratio of TD50 for neurotoxicity in ip dosed Kunming mouse to ED50 for anticonvulsant activity in ip dosed Kunming mouse; format: toxicity, organism-based; settings: in vivo, read-out: PI
Mus musculus [3] = test: Anticonvulsant activity in ip dosed Kunming mouse assessed as protection against maximal electroshock-induced seizures after 30 mins by MES test; format: functional; settings: 0.5 h
Mus musculus [4] = test: Anticonvulsant activity in ip dosed Swiss mouse assessed as protection against maximal electroshock-induced seizures administered 30 mins prior to electrical stimulation by MES test; format: functional
[5] = Protective index, ratio of TD50 for neurotoxicity in ip dosed Swiss mouse by rotarod test to ED50 for anticonvulsant activity in ip dosed Swiss mouse by MES test; format: toxicity, organism-based; settings: in vivo, read-out: Ratio TD50/ED50
[6] = Protective index, ratio of TD50 for neurotoxicity in ip dosed C57BL/6 mouse to ED50 for anticonvulsant activity in ip dosed C57BL/6 mouse; format: toxicity, organism-based, C57B/6; settings: in vivo
Mus musculus [7] = test: Anticonvulsant activity in ip dosed C57BL/6 mouse assessed as protection against maximal electroshock-induced seizures measured at 5 secs intervals over 4 hrs by MES test; format: functional; settings: C57B/6, ip
Mus musculus [8] = test: Anticonvulsant activity in ip dosed C57BL/6 mouse assessed as protection against maximal electroshock-induced seizures measured at 30 mins interval over 4 hrs by MES test; format: functional; settings: C57B/6, ip
Mus musculus [9] = test: Anticonvulsant activity in ip dosed NMRI mouse assessed as protection against PTZ-induced seizures administered 30 mins prior to PTZ injection measured after 30 mins; format: functional
Mus musculus [10] = test: Anticonvulsant activity in mouse assessed as protection against maximal electroshock-induced seizures at 50 and 100 mg/kg by MES test; format: functional
Mus musculus [11] = test: Anticonvulsant activity in ip dosed Swiss mouse assessed as protection against strychnine-induced tonic extensor after 30 mins; format: functional; settings: 0.5 h
Mus musculus [12] = test: Anticonvulsant activity in ip dosed Swiss mouse assessed as protection against PTZ-induced seizures administered 30 mins prior to PTZ challenge; format: functional
Mus musculus [13] = test: Anticonvulsant activity in NMRI mouse assessed as protection against PTZ-induced seizures at 100 mg/kg, ip administered 30 mins prior to PTZ injection measured for 30 mins; format: functional
Mus musculus [14] = test: Anticonvulsant activity in NMRI mouse assessed as protection against maximal electroshock-induced seizures at 100 mg/kg, ip by MES test; format: functional
Mus musculus [15] = test: Anticonvulsant activity in lithium-pilocarpine NMRI mouse model assessed as inhibition of pilocarpine-induced seizures at 10 mg/kg, ip administered 30 mins prior to pilocarpine injection measured for 60 mins; format: functional
[16] = Neurotoxicity in ip dosed C57BL/6 mouse after 30 mins by rotarod test; format: toxicity, organism-based, C57B/6; settings: in vivo
Mus musculus [17] = test: Anticonvulsant activity in albino Swiss mouse assessed as protection against PTZ-induced seizures at 100 mg/kg, ip administered 2 hrs prior to PTZ injection measured after 60 mins; format: functional
Mus musculus [18] = test: Anticonvulsant activity in BALB/c mouse assessed as protection against maximal electroshock-induced seizures at 30 mg/kg, po after 1 hr by MES test; format: functional
Mus musculus [19] = test: Anticonvulsant activity in ip dosed Kunming mouse assessed as protection against maximal electroshock-induced seizures […]; format: functional
[20] = Neurotoxicity in ip dosed Kunming mouse after 15 mins by rotarod test; format: toxicity, organism-based; settings: in vivo
Mus musculus [21] = test: Anticonvulsant activity in po dosed CD1 mouse assessed as protection against strychnine-induced seizures administered 0.5 hr prior to strychnine challenge; format: functional

For `Fc1ccc(-n2c(-c3cccc(Cl)c3)n[nH]c2=S)cc1`, the selectivity ratio [1] was 3.9.
With `CCCCCCCOc1nncn1-c1ccc(OCCCCCC)cc1` the selectivity ratio [2] was 11.3 and the ED50 (Mus musculus [3]) was 37.3 mg/kg.
Work on `CCCCCCCOc1nn2cnnc2c2ccccc12` yielded an ED50 (Mus musculus [4]) of 11 mg/kg and a selectivity ratio [5] of 8.
Work on `Fc1cccc(C2Cc3nncn3-c3ccccc32)c1` (stereo unspecified) yielded a selectivity ratio ([6]; read-out: PI) of 3.33, an ED50 (Mus musculus [7]) of 22 mg/kg and an ED50 (Mus musculus [8]) of 27.4 mg/kg.
In the case of `Nc1nnc(-c2ccc(Cl)cc2Oc2ccccc2F)[nH]1`, the ED50 (Mus musculus [9]) is reported as 1.4 mg/kg.
For `CCn1c(S)nnc1-c1sc(-c2ccccc2)nc1C`, the Activity (Mus musculus [10]) was 80%.
For `Cc1nn2c(C(N)=O)nnc2cc1Cc1c(Cl)cccc1Cl`, the ED50 (Mus musculus [4]) was 12.5 mg/kg, the ED50 (Mus musculus [11]) was 62.9 mg/kg and the ED50 (Mus musculus [12]) was 91.1 mg/kg.
Work on `Clc1ccc(-c2nc(Cn3cncn3)cs2)cc1` yielded an Activity (Mus musculus [13]) of 100% and an Activity (Mus musculus [14]) of 100%.
Compound `O=C1c2ccccc2OCC1n1cncn1` (stereo unspecified) has an inhibition in vivo at 10 mg/kg (Mus musculus [15]) of 49%.
Compound `CCCCCCCOc1ccc2c(c1)CCc1nn(C(=O)CC)c(=O)n1-2` has a selectivity ratio ([6]; read-out: Ratio TD50/ED50) of 39, a TD50 at 0.5 h [16] of 318 mg/kg and an ED50 (Mus musculus [8]) of 8.2 mg/kg.
For `CC1=NNC(=O)/C1=N\Nc1ccc(-c2n[nH]c(=O)n2-c2ccccc2)cc1`, the Activity (Mus musculus [17]) was 30%.
Work on `Cn1c(SCc2ccccc2)nnc1-c1ccc(N)cc1` yielded an Activity (Mus musculus [18]) of 50%.
Compound `Clc1ccc(-c2nn3cnnc3s2)cc1` has a selectivity ratio [2] of 10.8 and an ED50 (Mus musculus [19]) of 23.7 mg/kg.
For `Fc1ccccc1COc1ccc2c(c1)SCc1nncn1-2`, the TD50 at 0.25 h [20] was 244 mg/kg and the ED50 (Mus musculus [3]) was 17 mg/kg.
`Clc1ccc(C2=Nn3cnnc3SC2)cc1` gave a selectivity ratio [2] of 6.5 and an ED50 (Mus musculus [19]) of 40.9 mg/kg.
With `CCCCCCOc1ccc2c(c1)c(-c1ccccc1)cc1nncn12` the selectivity ratio ([6]; read-out: PI) was 35.1 and the ED50 (Mus musculus [8]) was 6.5 mg/kg.
`Nc1nnc(-c2ccc(Cl)cc2Oc2ccccc2Cl)[nH]1` gave an ED50 (Mus musculus [9]) of 12 mg/kg.
`Cn1c(-c2ccccc2)nnc1S(C)(=O)=O` gave an ED50 (Mus musculus [12]) of 55 mg/kg and an ED50 (Mus musculus [21]) of 7.3 mg/kg.
`CCCCCCCOc1cc(-c2ccccc2)nc2ncnn12` gave an ED50 (Mus musculus [19]) of 84.9 mg/kg.
Work on `Clc1ccc(Oc2nn3cnnc3c3ccccc23)cc1` yielded an ED50 (Mus musculus [4]) of 7.1 mg/kg and a selectivity ratio [5] of 5.2.
Compound `CC1=NNC(=O)/C1=N\Nc1ccc(-c2n[nH]c(=S)n2-c2ccccc2)cc1` has an Activity (Mus musculus [17]) of 30%.

From ChEMBL document CHEMBL3758156, “The importance of triazole scaffold in the development of anticonvulsant agents” (Eur J Med Chem, 2016)
